Test results published in patent US11028099B2, “NRF2 activators” (GLAXOSMITHKLINE INTELLECTUAL PROPERTY DEVELOPMENT LIMITED, priority 2016, dated 2021).

What was measured:
Rat PK = type: in vivo; details: oral bioavailability
[1] = biological target: T1, Kelch domain (321-609) of Keap1 / TAMRA-labeled NRF2 ETGE peptide (Homo sapiens, UniProt Q14145); assay: NRF2-Keap1 FP assay (Keap1 Kelch fluorescence polarization); type: binding; details: Keap1 (321-609) 20 nM, Tamra labelled peptide 8 nM
T1 construct: the Kelch domain (321-609) of Keap1 is used
Description: NRF2-Keap1 FP Assay One model for the NRF2-Keap1 interaction is through two binding sites in the Neh2 domain on NRF2. The two sites are referred to as the DLG binding motif (latch domain, uM affinity) and the ETGE binding motif (hinge domain, nM affinity). The Keap1 protein consists of an N-terminal region (NTR), a broad complex, tramtrack, and brick a brac domain (BTB), an intervening region (IVR), a double glycine repeat domain (DGR or Kelch), and a C-terminal region. The DLG and ETGE motifs of NRF2's Neh2 domain bind to the Kelch domain of Keap1 at different affinities. In the Keap1 Kelch fluorescence polarization (FP) assay, a TAMRA-labeled 16 mer peptide (AFFAQLQLDEETGEFL) containing the ETGE motif of NRF2 and the Kelch domain (321-609) of Keap1 is used. The assay determines if a compound interferes with the binding between Keap1 […] and the TAMRA-labeled peptide. Binding of TAMRA-labeled NRF2 peptide to Keap1 (321-609) results in a high FP signal. If a compound interferes with the binding between the peptide and the protein, it will cause the assay signal to decrease. Thus, assay signal is inversely proportional to binding inhibition. FP Assay:
100 nl of 100× compound dose response curves (serial 3-fold dilutions) in DMSO are stamped using an Echo liquid handling system (Labcyte) into 384-well low volume black assay plates (Greiner, #784076), with DMSO in columns 6 and 18. […] The plates are spun at 500 rpm for 1 min, incubated for 1 hr at room temperature, and read on an Analyst GT (Molecular Devices) equipped with excitation (530/25 nm) and emission (580/10 nm) filters designed for Tamra probes. […] Fluorescence measurements, represented as mP, are used in the transformation of the data. Compound activity is calculated based on percent inhibition, normalized against controls in the assay (Control 1 contains the Tamra peptide and Keap1 (321-609) together (0% response) and control 2 contains the Tamra peptide alone (100% response)). Data analysis is handled using the software package Abase XE (Surrey, United Kingdom. The % inhibition values are calculated by the equation: […]

Dog PK study = type: in vivo; details: for Dog PK Fpo: male beagle dogs, nominal 1 mg/kg, oral gavage solution vs 60-minute intravenous infusion, cassette, non-crossover
Experimental: One hundred nanoliters of 100× compound dose response curves (serial 3-fold dilutions) in DMSO are stamped using an Echo liquid handling system (Labcyte) into 384-well, low volume, black assay plates (Greiner, #784076), with DMSO in columns 6 and 18. The top concentration of compound is located in columns 1 and 13. All reagents are diluted in assay buffer (50 mM Tris, pH 8.0, 5 mM MgCl2, 100 mM NaCl, 0.005% BSA, 1 mM DTT, and 2 mM CHAPS). The BSA, DTT, and CHAPS are added to the assay buffer on the day of assay. Using a Multidrop Combi (Thermo Electron Corporation) equipped with a metal tip dispenser, 5 ul of 25 nM Keap1-FlagHis protein is added to all wells of the compound plate, with the exception of the wells in column 18. Wells in column 18 receive 5 ul of assay buffer instead. Plates are centrifuged at 500 rpm for 1 minute, covered with a plate lid, and incubated at 37° C. for 2.25 hours. Plates are then removed from the incubator and allowed to cool to RT for 15 minutes. Five microliters of 50 nM biotin-NRF2 protein is then added to all wells of the plates and the plates are spun at 500 rpm for 1 minute, followed by incubating at 4° C. for 1.25 hours. The plates are then allowed to warm to RT for 15 minutes, followed by the addition of 10 ul of detection mix (1 nM Streptavidin Eu+ W1024 and 5 ug/ml mouse anti-DYKDDDDK IgG conjugated to SureLight APC antibody; both from Columbia Biosciences) to all wells. Plates are spun at 500 rpm for 1 minute, incubated for 1 hour at RT, and read on an Envision plate reader using a 320 nm excitation filter and 615 nm and 665 nm emission filters. Compound response (% inhibition) and potency (pIC50) are calculated based on the ratio of the two emissions (665 nm/615 nm) and then the transformed data is normalized against controls in the assay (control 1=1% DMSO in the presence of NRF2 and Keap1 protein and control 2=1% DMSO in the absence of protein). Data analysis is handled using the software package Abase XE (Surrey, United Kingdom). The % inhibition values are calculated from the ratio (transformed) data by the equation: 100−(100*(compound response−average control 2)/(average control 1−average control2)). For calculation of pIC50s, Abase XE uses a four parameter equation. Dog PK Study
All studies were conducted after review by the GSK Institutional Animal Care and Use Committee and in accordance with the GSK Policy on the Care, Welfare and Treatment of Laboratory Animals. A pre-study health examination that included a physical exam and complete blood count was performed on the animals prior to use on study. A catheter was temporarily placed in a cephalic or saphenous vein for sample collection on the study day. The animals were fasted overnight prior to dosing; food provided after the 4-hour blood sample was collected. The intravenous and oral solution pharmacokinetic studies were carried out using a non-crossover design; a total of four male beagle dogs were used, two per route of administration.
The dose for intravenous administration was prepared as a cassette of up to five test compounds in 20% Cavitron™ and 5% DMSO. The intravenous dose formulation was filtered through a 0.22-micron polytetrafluoroethylene (PTFE) filter prior to administration. The dose for oral solution administration was prepared as a cassette of up to five compounds in 6% Cavitron™ and 5% DMSO and was filtered through a 0.22 micron VWR PTFE filter prior to administration. […]

[2] = biological target: T2, full length Keap1 protein / full length NRF2 protein (Homo sapiens, UniProt Q14145); assay: NRF2-Keap1 TR-FRET assay; type: binding; details: full length Keap1-FlagHis and biotin-NRF2
T2 construct: full length NRF2 protein and full length Keap1 protein (Keap1 exists a dimer) are used
Description: In the NRF2-Keap1 TR-FRET (time-resolved fluorescence resonance energy transfer) assay, full length NRF2 protein and full length Keap1 protein (Keap1 exists a dimer) are used. The assay detects the ability of compound to displace the binding of FlagHis-tagged Keap1 with biotinylated, Avi-tagged NRF2 protein. Biotin-NRF2 binds to streptavidin-europium (a component of the detection mix) and Keap1-FlagHis is recognized by anti-Flag APC (allophycocyanin) antibody (also a component of the detection mix). If binding occurs between the two proteins, there will be an energy transfer from the Eu+3 (donor) at 615 nm to the APC (acceptor) at 665 nm. A potential Keap1 inhibitor will cause a reduction in the TR-FRET signal by interfering with the binding of Keap1 to NRF2.
One hundred nanoliters of 100× compound dose response curves (serial 3-fold dilutions) in DMSO are stamped using an Echo liquid handling system (Labcyte) into 384-well, low volume, black assay plates (Greiner, #784076), with DMSO in columns 6 and 18. The top concentration of compound is located in columns 1 and 13. All reagents are diluted in assay buffer (50 mM Tris, pH 8.0, 5 mM MgCl2, 100 mM NaCl, 0.005% BSA, 1 mM DTT, and 2 mM CHAPS). The BSA, DTT, and CHAPS are added to the assay buffer on the day of assay. […] Plates are spun at 500 rpm for 1 minute, incubated for 1 hour at RT, and read on an Envision plate reader using a 320 nm excitation filter and 615 nm and 665 nm emission filters. Compound response (% inhibition) and potency (pIC50) are calculated based on the ratio of the two emissions (665 nm/615 nm) and then the transformed data is normalized against controls in the assay (control 1=1% DMSO in the presence of NRF2 and Keap1 protein and control 2=1% DMSO in the absence of protein). […] The % inhibition values are calculated from the ratio (transformed) data by the equation: 100−(100*(compound response−average control 2)/(average control 1−average control2)). […]

[3] = tested on: NQO1 specific activity induction (marker for NRF2 activation) in BEAS-2B cells; assay: BEAS-2B NQO1 MTT assay; type: cell-based; details: Homo sapiens, 48 hours with compound
Description: NAD(P)H:quinone oxidoreductase 1 (NQO1), also called DT diaphorase, is a homodimeric FAD-containing enzyme that catalyzes obligatory NAD(P)H-dependent two-electron reductions of quinones and protects cells against the toxic and neoplastic effects of free radicals and reactive oxygen species arising from one-electron reductions. The transcription of NQO1 is finely regulated by NRF2, and thus NQO1 activity is a good marker for NRF2 activation. On day one, frozen BEAS-2B cells (ATCC) are thawed in a water bath, counted, and re-suspended at a concentration of 250,000 cells/mL. Fifty microliters of cells are plated in 384 well black clear-bottomed plates. Plates are incubated at 37° C., 5% CO2 overnight. On day two, plates are centrifuged and 50 nL of compound or controls are added to the cells. Plates are then incubated at 37° C., 5% CO2 for 48 hours. On day four, medium is aspirated from the plate and crude cell lysates are made by adding 13 uL of 1× Cell Signaling Technologies lysis buffer with 1 Complete, Mini, EDTA-free Protease Inhibitor Tablet (Roche) for each 10 mL of lysis buffer. After lysis plates are incubated for 20 minutes at room temperature. Two microliters of lysate are removed for use in Cell Titer Glo assay (Promega) and MTT cocktail is prepared (Prochaska et. al. 1998) for measurement of NQO1 activity. Fifty microliters of MTT cocktail is added to each well, plate is centrifuged, and analyzed on an Envision plate reader (Perkin Elmer) using Absorbance 570 nm label for 30 minutes. Product formation is measured kinetically and the EC50 of NQO1 specific activity induction is calculated by plotting the change in absorbance (Delta OD/min) versus the log of compound concentration followed by 3-parameter fitting.

T2 sequence (Q14145 whole entry): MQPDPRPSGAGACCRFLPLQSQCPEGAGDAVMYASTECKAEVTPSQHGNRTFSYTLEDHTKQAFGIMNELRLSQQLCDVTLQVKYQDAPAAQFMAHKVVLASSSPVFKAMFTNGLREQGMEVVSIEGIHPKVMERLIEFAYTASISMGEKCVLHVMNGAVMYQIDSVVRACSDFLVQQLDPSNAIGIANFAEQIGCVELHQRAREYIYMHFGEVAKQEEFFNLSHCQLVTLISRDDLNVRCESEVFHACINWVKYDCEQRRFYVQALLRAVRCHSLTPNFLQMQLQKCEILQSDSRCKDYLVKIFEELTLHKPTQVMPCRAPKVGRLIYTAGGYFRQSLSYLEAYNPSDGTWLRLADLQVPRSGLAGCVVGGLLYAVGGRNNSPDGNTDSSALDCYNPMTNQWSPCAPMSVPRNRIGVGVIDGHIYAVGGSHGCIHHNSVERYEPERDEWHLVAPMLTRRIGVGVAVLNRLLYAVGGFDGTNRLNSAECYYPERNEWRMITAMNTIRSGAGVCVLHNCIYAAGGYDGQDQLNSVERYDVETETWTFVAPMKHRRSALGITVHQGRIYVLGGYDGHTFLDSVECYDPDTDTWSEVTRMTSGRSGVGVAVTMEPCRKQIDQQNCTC
T1 sequence (Q14145 321-609): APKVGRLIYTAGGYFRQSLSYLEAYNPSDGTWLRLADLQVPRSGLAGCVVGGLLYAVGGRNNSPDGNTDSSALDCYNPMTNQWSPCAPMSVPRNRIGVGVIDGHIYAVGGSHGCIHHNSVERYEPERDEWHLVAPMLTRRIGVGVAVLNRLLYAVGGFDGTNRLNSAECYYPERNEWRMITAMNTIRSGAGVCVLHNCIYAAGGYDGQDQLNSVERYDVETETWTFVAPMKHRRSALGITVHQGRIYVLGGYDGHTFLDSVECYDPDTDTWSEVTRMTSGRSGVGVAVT

Row | Rat PK Fpo (Rat PK) [%] | IC50 [1] [nM] | difference in the dog oral bioavailability (Dog PK study; compound of the invention versus the S-isomer, dog) [fold] | Dog PK Fpo (Dog PK study) [%] | Dog PK Fpo (Dog PK study; listed as compound of the invention) [%] | IC50 [2] [nM] | Dog PK Fpo (Dog PK study; listed as S-isomer) [%] | SMILES | EC50 [3] [nM]
1 | 129 | 40 | ~5 | 52 | 52 | 16 |  | CC[C@@H]1CN(Cc2cc([C@@H](CC(=O)O)c3ccc4c(nnn4C)c3C)ccc2C)Cc2ncccc2O1 [Formula (I) R-beta-stereocenter isomer, (R)-3-(1,4-dimethyl-1H-benzo[d][1,2,3]triazol-5-yl)-3-(3-(((R)-2-ethyl-2,3-dihydropyrido[2,3-f][1,4]oxazepin-4(5H)-yl)methyl)-4-methylphenyl)propanoic acid] | 20
2 | 78 | 50 |  | 11 |  | 12 | 11 | CC[C@@H]1CN(Cc2cc([C@H](CC(=O)O)c3ccc4c(nnn4C)c3C)ccc2C)Cc2ncccc2O1 [S-beta-stereocenter isomer, (S)-3-(1,4-dimethyl-1H-benzo[d][1,2,3]triazol-5-yl)-3-(3-(((R)-2-ethyl-2,3-dihydropyrido[2,3-f][1,4]oxazepin-4(5H)-yl)methyl)-4-methylphenyl)propanoic acid] | 16
3 | 177 | 63 |  |  |  | 25 |  | CC[C@@H]1CN(Cc2cc(C(CC(=O)O)c3ccc4c(nnn4C)c3C)ccc2C)Cc2ncccc2O1 (mixture of isomers) [Beta-stereocenter 50/50 mixture, 3-(1,4-Dimethyl-1H-benzo[d][1,2,3]triazol-5-yl)-3-(3-(((R)-2-ethyl-2,3-dihydropyrido[2,3-t][1,4]oxazepin-4(5H)-yl)methyl)-4-methylphenyl)propanoic acid] | 20
